Results: US12611406B2, “Oxopiperazine derivatives for the treatment of cancer” (Inthera Bioscience AG, priority 2020, dated 2026)

What was measured:
[1] = 28-day once weekly oral repeated-dose DRF study in cynomolgus monkeys (mesylate salt); type: in vivo; conditions: for Cmax / Tmax / half-life / AUC(0-t): cynomolgus monkey, po; for AUC(0-t): read-out: AUC0-Tlast
Method: The objective of the study was to determine the TK profile of Compound 1 following 4 weekly oral administrations to cynomolgus monkeys and to assess reversibility of any changes following a 13-day recovery period.
Male and female cynomolgus monkeys (n=1/sex/group) were orally administered Compound 1 (mesylate salt) at dose levels of 30, 45, 60, or 90 mg/kg/administration for 4 consecutive doses on study days 1, 8, 15, and 22. The vehicle was 0.5% (w/v) methyl cellulose 400 in sterile water. For TK analysis blood samples were collected from each monkey on Days 1, 8, 15 and 22 at pre-dose, 15 min, 30 min, as well as 1, 2, 4, 6, 8, 12, and 24 hours post-dose. Non-compartmental analysis of Compound 1 blood concentrations data sets was performed using the Phoenix® WinNonlin® software (version 6.4).

[2] = 28-day once weekly oral repeated-dose DRF study in CD-1 mice (mesylate salt), plasma; type: in vivo; conditions: male; for Tmax / Cmax / AUC(0-t) / half-life: CD-1, mouse, plasma, po; for AUC(0-t): read-out: AUC0-8h
Method: This study explored the PK of Compound 1 after once weekly oral administration of 300 and 600 mg/kg/week for 4 consecutive weeks to male CD-1 mice.
Compound 1 (mesylate salt) was administered in 4 weekly doses by oral gavage to groups of male CD-1 mice (n=3/group) at dose levels of 300 and 600 mg/kg bodyweight per week. A suspension of 0.5% methylcellulose (w/v) in sterile water served as vehicle. Blood samples for PK analysis were collected after the second (Day 8) and fourth (Day 22) dosing at pre-dose, 0.25, 0.5, 1, 2, 4, 8, and 24 hours (the latter time point only after the 2nd dose) after administration.
Total plasma concentrations of Compound 1 were analyzed using a qualified LC-MS/MS method.

[3] = tested on: LNCaP cells; experiment: Cell cycle distribution with siRNA-mediated knock-down of Rb and p53; type: cell-based; conditions: LNCaP treated with Rb/p53 siRNA, 24 h
Method: Top panel: Cell cycle distribution in LNCap cells treated with siRNA (2 bars on the right) in comparison to control LNCaP cells without siRNA treatment (2 bars in the middle), in the absence (−) or presence (+) of Compound 1 for 24 h at the indicated concentration. For comparison, DU-145 cells harboring a combined Rb1 and p53 loss-of-function are included (2 bars on the left). Lower panel: Western blot analysis according to the same experimental conditions as given for the top panel.
In in vitro studies using LNCaP PC cells, harboring wild-type Rb and p53 genes, the effect of Compound 1 on the cell cycle was investigated in the absence and presence of siRNA-mediated knock-down of Rb and p53 gene expression. […] This effect is hypothesized to be due to Compound 1-mediated perturbation of the interaction between p300 and DDR factors and subsequent impact on the late cell cycle checkpoints and the DDR leading to cell death.

[4] = tested on: human enzymes, transporters, kinases, receptors and ion channels; experiment: In vitro safety pharmacology panels
Method: Compound 1 was tested using in vitro safety pharmacology panels encompassing human enzymes, transporters, kinases, receptors and ion channels thought to be potential contributors to adverse drug reactions.

[5] = female, blood, 45 mg/kg, F, Day 1
[6] = female, blood, 45 mg/kg, F, Day 22
[7] = female, blood, 60 mg/kg, F, Day 1
[8] = female, blood, 60 mg/kg, F, Day 22
[9] = female, blood, 90 mg/kg, F, Day 1
[10] = female, whole blood, 30 mg/kg, F, Day 1
[11] = female, whole blood, 30 mg/kg, F, Day 22
[12] = male, blood, 60 mg/kg, M, Day 1
[13] = male, blood, 60 mg/kg, M, Day 22
[14] = male, blood, 90 mg/kg, M, Day 1
[15] = male, whole blood, 30 mg/kg, M, Day 1
[16] = male, whole blood, 30 mg/kg, M, Day 22
[17] = male, whole blood, 45 mg/kg, M, Day 1
[18] = male, whole blood, 45 mg/kg, M, Day 22
[19] = 300 mg/kg, 300 mg/kg/week, 2nd dose (Week 2)
[20] = 300 mg/kg, 300 mg/kg/week, 4th dose (Week 4)
[21] = 600 mg/kg, 600 mg/kg/week, 2nd dose (Week 2)
[22] = 600 mg/kg, 600 mg/kg/week, 4th dose (Week 4)

CC(C)C[C@@H]1NCCN([C@@H](CC(C)C)C(=O)N2CCC3(C[C@@H]2C)OCC(CN2CCCC2)CO3)C1=O (stereo partly drawn) [Compound 1, (S)-3-isobutyl-1-((S)-4-methyl-1-((S)-8-methyl-3-(pyrrolidin-1-ylmethyl)-1,5-dioxa-9-azaspiro[5.5]undecan-9-yl)-1-oxopentan-2-yl)piperazin-2-one]
Cmax [1, 5]: 1460 ng/mL
Tmax [1, 5]: 1.5 h
half-life [1, 5]: 6.3 h
AUC(0-t) [1, 5]: 4130 ng·h/mL
Cmax [1, 6]: 1650 ng/mL
Tmax [1, 6]: 1.5 h
half-life [1, 6]: 5.8 h
AUC(0-t) [1, 6]: 4810 ng·h/mL
Cmax [1, 7]: 1830 ng/mL
Tmax [1, 7]: 1 h
half-life [1, 7]: 3.8 h
AUC(0-t) [1, 7]: 7440 ng·h/mL
Cmax [1, 8]: 4480 ng/mL
Tmax [1, 8]: 2 h
half-life [1, 8]: 4.4 h
AUC(0-t) [1, 8]: 17400 ng·h/mL
Cmax [1, 9]: 5030 ng/mL
Tmax [1, 9]: 1.5 h
half-life [1, 9]: 4.3 h
Cmax [1, 10]: 296 ng/mL
Tmax [1, 10]: 0.63 h
half-life [1, 10]: 6.4 h
AUC(0-t) [1, 10]: 894 ng·h/mL
Cmax [1, 11]: 223 ng/mL
Tmax [1, 11]: 1.25 h
half-life [1, 11]: 5.5 h
AUC(0-t) [1, 11]: 874 ng·h/mL
AUC(0-t) ([1]; female, whole blood, 90 mg/kg, F, Day 1): 18700 ng·h/mL
Cmax [1, 12]: 449 ng/mL
Tmax [1, 12]: 0.5 h
half-life [1, 12]: 7.5 h
AUC(0-t) [1, 12]: 1170 ng·h/mL
Cmax [1, 13]: 2430 ng/mL
Tmax [1, 13]: 1 h
half-life [1, 13]: 5.7 h
AUC(0-t) [1, 13]: 6710 ng·h/mL
Cmax [1, 14]: 7300 ng/mL
Tmax [1, 14]: 0.63 h
half-life [1, 14]: 4.2 h
AUC(0-t) [1, 14]: 22800 ng·h/mL
Cmax [1, 15]: 229 ng/mL
Tmax [1, 15]: 0.63 h
half-life [1, 15]: 4.9 h
AUC(0-t) [1, 15]: 721 ng·h/mL
Cmax [1, 16]: 171 ng/mL
Tmax [1, 16]: 2 h
half-life [1, 16]: 2.6 h
AUC(0-t) [1, 16]: 576 ng·h/mL
Cmax [1, 17]: 1040 ng/mL
Tmax [1, 17]: 1.5 h
half-life [1, 17]: 7.6 h
AUC(0-t) [1, 17]: 2950 ng·h/mL
Cmax [1, 18]: 1350 ng/mL
Tmax [1, 18]: 1.25 h
half-life [1, 18]: 5.2 h
AUC(0-t) [1, 18]: 3910 ng·h/mL
accumulation ([1]; once weekly for 4 weeks at doses up to 60 mg/kg): did not accumulate
tolerability ([1]; single oral administration of 90 mg/kg/adm): side effects in one animal
tolerability ([1]; weekly oral for 4 consecutive weeks at 30, 45, and 60 mg/kg/administration): well-tolerated
Tmax ([2]; 300 mg/kg, 300 mg/kg/week, 2nd dose): 1 h
Cmax [2, 19]: 8130 ng/mL
AUC(0-t) [2, 19]: 13600 ng·h/mL
Tmax ([2]; 300 mg/kg, 300 mg/kg/week, 4th dose): 1.3 h
Cmax [2, 20]: 8370 ng/mL
AUC(0-t) [2, 20]: 38200 ng·h/mL
Tmax ([2]; 600 mg/kg, 600 mg/kg/week, 2nd dose): 5.7 h
Cmax [2, 21]: 13400 ng/mL
AUC(0-t) [2, 21]: 47800 ng·h/mL
Tmax ([2]; 600 mg/kg, 600 mg/kg/week, 4th dose): 0.5 h
Cmax [2, 22]: 28800 ng/mL
AUC(0-t) [2, 22]: 125000 ng·h/mL
half-life ([2]; 300 mg/kg/week, 2nd dose): 4.1 h
half-life ([2]; 600 mg/kg/week, 4th dose): 85.8 h
tolerability ([2]; once weekly orally for 4 weeks at 300 and 600 mg/kg/week): well tolerated
cell cycle response [3]: increase of cells in the S-phase
responses in safety pharmacology panels [4]: No significant responses were detected
